The results in this text go back to patent US9492460B2, “Carbazole compounds useful as bromodomain inhibitors” (Bristol-Myers Squibb Company, priority 2013, dated 2016).

What is called IC50 is the midpoint of a concentration-inhibition curve. Low readings indicate higher potency, high ones lower potency.

This assay has as its target T1, bromodomain BRD4 (44-168), BRD4 (333-460), and BRD4 (1-477 or 44-460) (Homo sapiens, UniProt O60885).
T1 construct: BRD4(44-168), BRD4(333-460), BRD4(44-460), BRD4(1-477), O60885-1; fused on or other part: N-terminal BirA biotinylation motif, biotinylated; The TVMV-cleavable His6 tag is removed, except in some BRD4(44-460) runs detected with anti-His terbium cryptate
Description: Time Resolved Fluorescence Resonance Energy Transfer (TR-FRET) binding assay. The following applies: one of the FRET assays described. For orientation: In TR-FRET formats the signal depends on donor and acceptor labels being close together.
`CNC(=O)c1cc(-c2c(C)noc2C)cc2c1c1cc(C(=O)N3CC(F)(F)C3)ccc1n2C(C)c1ccccc1` (centres unmarked) [Example 119, 6-((3,3-difluoro-1-azetidinyl)carbonyl)-2-(3,5-dimethyl-4-isoxazolyl)-N-methyl-9-(1-phenylethyl)-9H-carbazole-4-carboxamide]: the IC50 is under 0.05 µM.
As for `Cc1noc(C)c1-c1cc(C(N)=O)c2c3cc(C(=O)N4C[C@@H](C)O[C@@H](C)C4)ccc3n(S(=O)(=O)c3ccccc3)c2c1` [Example 45, 2-(3,5-dimethylisoxazol-4-yl)-6-(cis-2,6-dimethylmorpholine-4-carbonyl)-9-(phenylsulfonyl)-9H-carbazole-4-carboxamide], the figure is under 7.5 µM.
As for `Cc1noc(C)c1-c1ccc2c3cc(C(=O)N4C[C@@H](C)O[C@@H](C)C4)ccc3n(S(C)(=O)=O)c2c1` [Example 23, 2-(3,5-dimethyl-4-isoxazolyl)-6-((cis-2,6-dimethyl-4-morpholinyl)carbonyl)-9-(methylsulfonyl)-9H-carbazole], the figure is under 7.5 µM.
As to `Cc1noc(C)c1-c1cc(C(N)=O)c2c3cc(C(=O)N4CCCC4)ccc3n(Cc3ccccc3)c2c1` [Example 66], the 50% inhibitory concentration (IC50) was under 0.05 µM.
In turn, `Cc1noc(C)c1-c1cc(C(N)=O)c2c3cc(N4CCCOC4=O)ccc3n(Cc3cc(F)ccc3F)c2c1` [Example 159, 9-(2,5-difluorobenzyl)-2-(3,5-dimethyl-4-isoxazolyl)-6-(2-oxo-1,3-oxazinan-3-yl)-9H-carbazole-4-carboxamide] showed a half-maximal inhibitory concentration (IC50) of under 0.05 µM.
The compound `CNC(=O)c1cc(-c2c(C)noc2C)cc2c1c1cc(C(=O)N3CC(F)C3)ccc1n2Cc1ccc(Cl)cc1F` [Example 110] displayed an IC50 of under 0.05 µM.
`Cc1noc(C)c1-c1cc(C(=O)NC2CC2)c2c3cc(C(=O)N4CC(F)C4)ccc3n(Cc3ccc(F)cc3)c2c1` [Example 125, N-cyclopropyl-2-(3,5-dimethyl-4-isoxazolyl)-6-((3-fluoro-1-azetidinyl)carbonyl)-9-(4-fluorobenzyl)-9H-carbazole-4-carboxamide] returned an IC50 of under 0.05 µM.
As for `Cc1noc(C)c1-c1cc(C(N)=O)c2c3cc(C(=O)N4CCC(F)(F)C4)ccc3n(Cc3ccccc3)c2c1` [Example 61], the figure is under 0.05 µM; as for `Cc1noc(C)c1-c1cc(C(N)=O)c2c3cc(C(=O)N4CCC(F)C4)ccc3n(Cc3ccc(Cl)cc3)c2c1` (centres unmarked) [Example 80], under 0.05 µM; as for `CNC(=O)c1cc(-c2c(C)noc2C)cc2c1c1cc(C(=O)N3CC(F)C3)ccc1n2Cc1ccc(F)cc1` [Example 103], under 0.05 µM.
Take `Cc1cccc(Cn2c3ccc(C(=O)N4CC(C)OC(C)C4)cc3c3ccc(-c4c(C)noc4C)cc32)c1` (centres unmarked) [Example 20]: the IC50 was under 0.5 µM.
In the case of `Cc1noc(C)c1-c1cc(C(N)=O)c2c3cc(C(=O)N4C(C)(C)CC(O)CC4(C)C)ccc3n(Cc3ccccc3)c2c1` [Example 63], the IC50 is under 0.05 µM.
The same measure for `CNC(=O)c1cc(-c2c(C)noc2C)cc2c1c1cc(C(=O)N3CC(F)C3)ccc1n2C(C)c1ccccc1` (centres unmarked) [Example 113]: under 0.05 µM; for `Cc1noc(C)c1-c1cc(C(N)=O)c2c3ccc(C(C)(C)O)c(F)c3n(C(c3ccccc3)C3CCC(F)(F)CC3)c2c1` (single isomer, unassigned) [Example 226, 9-[(4,4-difluorocyclohexyl)(phenyl)methyl]-2-(dimethyl-1,2-oxazol-4-yl)-8-fluoro-7-(2-hydroxypropan-2-yl)-9H-carbazole-4-carboxamide]: under 0.05 µM; for `Cc1noc(C)c1-c1cc(C(N)=O)c2c3cc(C(=O)N4CC(C)OC(C)C4)ccc3n(Cc3ccc(F)cc3F)c2c1` (centres unmarked) [Example 36]: under 0.05 µM.
As for `Cc1noc(C)c1-c1cc(C(N)=O)c2c3cc(C(=O)N4CC(C)OC(C)C4)ccc3n(Cc3cccc(C#N)c3)c2c1` (centres unmarked) [Example 44], the IC50 was under 0.05 µM.
As for `CNC(=O)c1cc(-c2c(C)noc2C)cc2c1c1cc(C(=O)N3CC(F)C3)ccc1n2CC1CC1` [Example 115], the figure is under 0.05 µM; as for `CCNC(=O)c1cc(-c2c(C)noc2C)cc2c1c1cc(N3CCCOC3=O)ccc1n2Cc1ccc(Cl)cc1` [Example 166, 9-(4-chlorobenzyl)-2-(3,5-dimethyl-4-isoxazolyl)-N-ethyl-6-(2-oxo-1,3-oxazinan-3-yl)-9H-carbazole-4-carboxamide], under 7.5 µM.
Turning to `Cc1noc(C)c1-c1cc(C(N)=O)c2c3cc(C(=O)N4CC[C@H](F)C4)ccc3n(Cc3c(F)cccc3F)c2c1` [Example 79, 9-(2,6-difluorobenzyl)-2-(3,5-dimethyl-4-isoxazolyl)-6-(((3S)-3-fluoro-1-pyrrolidinyl)carbonyl)-9H-carbazole-4-carboxamide], the IC50 is under 0.05 µM.
Turning to `Cc1noc(C)c1-c1ccc2c3cc(C(=O)N4CC(C)OC(C)C4)ccc3n(CC3CC3)c2c1` (centres unmarked) [Example 5], the IC50 was under 0.5 µM.
In turn, `Cc1noc(C)c1-c1cc(C(N)=O)c2c(c1)[nH]c1ccc(C(=O)N3C[C@@H](C)O[C@@H](C)C3)cc12` [Example 25, 2-(3,5-dimethyl-4-isoxazolyl)-6-((cis-2,6-dimethyl-4-morpholinyl)carbonyl)-9H-carbazole-4-carboxamide] returned an IC50 of under 0.5 µM.
With `CNC(=O)c1cc(-c2c(C)noc2C)cc2c1c1cc(N3CCCOC3=O)ccc1n2C(C)c1ccccc1` (centres unmarked) [Example 173, 2-(3,5-dimethyl-4-isoxazolyl)-N-methyl-6-(2-oxo-1,3-oxazinan-3-yl)-9-(1-phenylethyl)-9H-carbazole-4-carboxamide], the 50% inhibitory concentration (IC50) is under 7.5 µM.
As to `COC(=O)c1ccc2c3c(C(N)=O)cc(-c4c(C)noc4C)cc3n(Cc3ccccc3)c2c1` [Example 183, Methyl 9-benzyl-5-carbamoyl-7-(3,5-dimethyl-4-isoxazolyl)-9H-carbazole-2-carboxylate], the IC50 was under 0.05 µM.
The compound `CNC(=O)c1cc(-c2c(C)noc2C)cc2c1c1cc(N3CCCOC3=O)ccc1n2Cc1ccc(Cl)cc1` [Example 170, 9-(4-chlorobenzyl)-2-(3,5-dimethyl-4-isoxazolyl)-N-methyl-6-(2-oxo-1,3-oxazinan-3-yl)-9H-carbazole-4-carboxamide] gave an IC50 of under 0.05 µM.
Take `Cc1noc(C)c1-c1cc(C(=O)NCC(C)C)c2c3cc(C(=O)N4CC(F)C4)ccc3n(Cc3ccc(F)cc3)c2c1` [Example 128, 2-(3,5-dimethyl-4-isoxazolyl)-6-((3-fluoro-1-azetidinyl)carbonyl)-9-(4-fluorobenzyl)-N-isobutyl-9H-carbazole-4-carboxamide]: the IC50 was under 0.5 µM.
`Cc1noc(C)c1-c1cc(C(N)=O)c2c3cc(C(=O)N4CC(F)C4)ccc3n(Cc3ccc(Cl)cc3F)c2c1` [Example 87] had an IC50 of under 0.05 µM.
With `Cc1noc(C)c1-c1cc(C(N)=O)c2c3cc(C(=O)N4CCC(F)C4)ccc3n(Cc3cccc(F)c3)c2c1` (centres unmarked) [Example 81], the IC50 is under 0.05 µM.
As for `Cc1noc(C)c1-c1cc(C#N)c2c3cc(C(=O)N4CC(F)C4)ccc3n(Cc3cccc(F)c3)c2c1` [Example 121, 2-(3,5-dimethyl-4-isoxazolyl)-6-((3-fluoro-1-azetidinyl)carbonyl)-9-(3-fluorobenzyl)-9H-carbazole-4-carbonitrile], the IC50 was under 0.5 µM.
`Cc1noc(C)c1-c1ccc2c3cc(C(=O)N4CC(C)OC(C)C4)ccc3n(Cc3cccc(F)c3)c2c1` (centres unmarked) [Example 17] yielded an IC50 of under 0.5 µM.
`Cc1noc(C)c1-c1cc(C(N)=O)c2c3cc(C(=O)N4CC(C)OC(C)C4)ccc3n(Cc3ccccc3)c2c1` (centres unmarked) [Example 69] displayed a half-maximal inhibitory concentration (IC50) of under 0.05 µM.
In turn, `COc1cccc(Cn2c3ccc(C(=O)N4CC(C)OC(C)C4)cc3c3ccc(-c4c(C)noc4C)cc32)c1` (centres unmarked) [Example 14] gave an IC50 of under 0.5 µM.
As for `Cc1noc(C)c1-c1cc(C(N)=O)c2c3cc(C(=O)N4CCO[C@H](C)C4)ccc3n(Cc3ccccc3)c2c1` [Example 62], the figure is under 0.05 µM.
Consider `Cc1noc(C)c1-c1cc(C(N)=O)c2c3cc(NC(=O)N4CCOCC4)ccc3n(Cc3ccccc3)c2c1` [Example 146, 9-benzyl-2-(3,5-dimethyl-4-isoxazolyl)-6-((4-morpholinylcarbonyl)amino)-9H-carbazole-4-carboxamide], for which the IC50 is under 0.05 µM.
`CNC(=O)c1cc(-c2c(C)noc2C)cc2c1c1cc(C(=O)N3CC(F)C3)ccc1n2C(C)c1ccc(F)cc1` (centres unmarked) [Example 112] came in with an IC50 of under 0.5 µM.
`Cc1csc(Cn2c3ccc(C(=O)N4CCC(F)C4)cc3c3c(C(N)=O)cc(-c4c(C)noc4C)cc32)n1` (centres unmarked) [Example 83] gave an IC50 of under 0.05 µM.
`COc1ccc2c(c1)c1c(C(N)=O)cc(-c3c(C)noc3C)cc1n2C(C)c1ccccc1` (single isomer, unassigned) [Example 180, 2-(3,5-dimethyl-4-isoxazolyl)-6-methoxy-9-(1-phenylethyl)-9H-carbazole-4-carboxamide]: the IC50 was under 0.05 µM.
`Cc1noc(C)c1-c1cc(C(N)=O)c2c3ccc(C(=O)c4cccc(F)c4)cc3n(Cc3ccccc3)c2c1` [Example 190, 9-Benzyl-2-(3,5-dimethyl-4-isoxazolyl)-7-(3-fluorobenzoyl)-9H-carbazole-4-carboxamide] showed an IC50 of under 0.5 µM.
The same measure for `COc1ccccc1Cn1c2ccc(C(=O)N3CC(C)OC(C)C3)cc2c2c(C(N)=O)cc(-c3c(C)noc3C)cc21` (centres unmarked) [Example 40]: under 0.05 µM; for `Cc1noc(C)c1-c1cc(C(N)=O)c2c3cc(C(=O)N4CC(F)(F)C4)ccc3n(Cc3ccccc3)c2c1` [Example 78]: under 0.05 µM.
The same measure for `Cc1noc(C)c1-c1cc(C(=O)N2CC(F)C2)c2c3cc(C(=O)N4CC(F)C4)ccc3n(Cc3ccc(F)cc3)c2c1` [Example 129, 2-(3,5-dimethyl-4-isoxazolyl)-4,6-bis((3-fluoro-1-azetidinyl)carbonyl)-9-(4-fluorobenzyl)-9H-carbazole]: under 0.5 µM.
With `Cc1noc(C)c1-c1cc(C(N)=O)c2c3cc(C(=O)N4CC(C)OC(C)C4)ccc3n(Cc3nccs3)c2c1` (centres unmarked) [Example 30], the half-maximal inhibitory concentration (IC50) was under 0.05 µM.
